Experimental data taken from US5140015A, “2-aralkoxy and 2-alkoxy adenosine derivatives as coronary vasodilators and antihypertensive agents” (Whitby Research, Inc., priority 1990, dated 1992).
Read-outs that look alike come from different tables or passages of the source.

Key:
Parameters in all cases: species or system guinea pig (female Sprague-Dawley)
[1] = molecular target: T1, A2 receptor of the coronary artery (Cavia porcellus, UniProt P46616); assay: Coronary flow increase in isolated perfused heart (Langendorff preparation)
T1 construct: perfused hearts from female Sprague-Dawley guinea pigs in an isolated Langendorff heart preparation; from tissue; host or cells: isolated perfused guinea pig heart (Langendorff), coronary vasculature
Description: (§1) Assays of the cardiovascular potency of the above compounds at the A1 receptors of the SA node and at the A2 receptor of the coronary artery employed perfused hearts from female Sprague-Dawley guinea pigs in an isolated Langendorff heart preparation. An assay consists of an infusion of a spectophotometrically standardized solution of test compound directly into the aortic cannula at rates increasing stepwise every 5 minutes. Collection of the total cardiac effluent during the first half of each infusion period provides a measure of coronary flow (A2 effect). The concentration of test compound required to produce a half-maximal increase in coronary flow is determined. Registration of the ECG assesses the effect of the test compound on SA node (stimulus to Q interval, A1 effect). The concentration of test compound required to produce a half-maximal prolongation of stimulus to Q interval is determined. […] The ratio of A1 and A2 effects of test compounds are calculated to provide the selectivity ratio.

[2] = molecular target: T2, A1 receptors of the SA node (Cavia porcellus, UniProt P47745); assay: SQ (stimulus to Q interval) prolongation in isolated perfused heart (Langendorff preparation); conditions: isolated perfused guinea pig heart; concentration for half-maximal prolongation of stimulus to Q interval; read-out: SQ Prolongation (A1) ED50
T2 construct: perfused hearts from female Sprague-Dawley guinea pigs in an isolated Langendorff heart preparation; from tissue; host or cells: isolated perfused guinea pig heart (Langendorff), nodal tissue
T2 sequence (P47745 1-326): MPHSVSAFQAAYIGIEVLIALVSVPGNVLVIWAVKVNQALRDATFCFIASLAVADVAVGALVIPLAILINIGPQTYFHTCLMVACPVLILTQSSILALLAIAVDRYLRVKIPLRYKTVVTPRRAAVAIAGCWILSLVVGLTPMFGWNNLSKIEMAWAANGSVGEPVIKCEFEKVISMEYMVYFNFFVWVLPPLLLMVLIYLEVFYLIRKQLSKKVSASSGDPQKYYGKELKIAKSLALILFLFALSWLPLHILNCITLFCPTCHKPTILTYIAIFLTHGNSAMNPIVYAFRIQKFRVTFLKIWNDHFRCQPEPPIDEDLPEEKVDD
Description: as §1

[3] = test system: A2 receptor of the coronary artery; assay: Coronary flow increase in isolated perfused heart (Langendorff preparation); conditions: ratio of A1 (SQ prolongation) and A2 (coronary flow) effects
Description: as §1

[4] = isolated perfused guinea pig heart, concentration for half-maximal increase in coronary flow, stepwise infusion every 5 minutes, read-out: Coronary Blood Flow Increase (A2) EC50

T1 sequence (P46616 whole entry, the tested form may be a part): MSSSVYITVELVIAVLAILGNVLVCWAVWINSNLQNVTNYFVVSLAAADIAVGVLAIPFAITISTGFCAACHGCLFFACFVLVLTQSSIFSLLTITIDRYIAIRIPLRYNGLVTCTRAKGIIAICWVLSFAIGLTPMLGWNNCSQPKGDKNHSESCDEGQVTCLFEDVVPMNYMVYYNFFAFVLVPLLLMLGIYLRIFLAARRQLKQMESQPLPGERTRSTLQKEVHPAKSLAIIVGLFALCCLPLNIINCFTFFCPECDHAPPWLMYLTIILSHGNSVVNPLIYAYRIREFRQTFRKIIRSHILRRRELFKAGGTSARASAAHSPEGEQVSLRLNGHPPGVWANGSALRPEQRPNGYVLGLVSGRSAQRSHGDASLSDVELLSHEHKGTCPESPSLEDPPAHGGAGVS

SMILES	EC50 [1, 4]	EC50 [2]	further results
Nc1nc(OCCCc2ccccc2)nc2c1ncn2[C@@H]1O[C@H](CO)[C@@H](O)[C@H]1O [Example 1, 2-(3-phenyl-1-propoxy)adenosine]	61.3 nM		
Nc1nc(OCCc2ccc(F)cc2)nc2c1ncn2[C@@H]1O[C@H](CO)[C@@H](O)[C@H]1O [Example 2, 2-[2-(4-fluorophenyl)ethoxy]adenosine]	0.9 nM		
Nc1nc(OC2CCCC2)nc2c1ncn2[C@@H]1O[C@H](CO)[C@@H](O)[C@H]1O [Example 3, 2-Cyclopentyloxyadenosine]	91.7 nM	79.4 µM	
Nc1nc(OC2CCCCC2)nc2c1ncn2[C@@H]1O[C@H](CO)[C@@H](O)[C@H]1O [Example 4, 2-Cyclohexyloxyadenosine]	657 nM	100 µM	
Nc1nc(OCCC2CCCCC2)nc2c1ncn2[C@@H]1O[C@H](CO)[C@@H](O)[C@H]1O [Example 5, 2-(2-Cyclohexylethoxy)adenosine]		8.63 µM	
Nc1nc(OCc2ccccc2)nc2c1ncn2[C@@H]1O[C@H](CO)[C@@H](O)[C@H]1O [Example 6, 2-benzyloxyadenosine]	419 nM		Selectivity (A1/A2) [3]: 15
Nc1nc(OCCc2ccccc2)nc2c1ncn2[C@@H]1O[C@H](CO)[C@@H](O)[C@H]1O [Example 7, 2-(2-phenylethoxy)adenosine]	2.8 nM		
COc1ccccc1CCOc1nc(N)c2ncn([C@@H]3O[C@H](CO)[C@@H](O)[C@H]3O)c2n1 [Example 8, 2-[2-(2-methoxyphenyl)ethoxy]adenosine]	32 nM		
COc1cccc(CCOc2nc(N)c3ncn([C@@H]4O[C@H](CO)[C@@H](O)[C@H]4O)c3n2)c1 [Example 9, 2-[2-(3-methoxyphenyl)ethoxy]adenosine]	2.6 nM		
COc1ccc(CCOc2nc(N)c3ncn([C@@H]4O[C@H](CO)[C@@H](O)[C@H]4O)c3n2)cc1 [Example 10, 2-[2-(4-methoxyphenyl)ethoxy]adenosine]	1.4 nM		
Cc1ccccc1CCOc1nc(N)c2ncn([C@@H]3O[C@H](CO)[C@@H](O)[C@H]3O)c2n1 [Example 11, 2-[2-(2-methylphenyl)ethoxy]adenosine]	3.8 nM		
COc1cc(CCOc2nc(N)c3ncn([C@@H]4O[C@H](CO)[C@@H](O)[C@H]4O)c3n2)cc(OC)c1OC [Example 12, 2-[2-(3,4,5-trimethoxyphenyl)ethoxy]adenosine]	22 nM		
Nc1nc(OCCc2cccs2)nc2c1ncn2[C@@H]1O[C@H](CO)[C@@H](O)[C@H]1O [Example 13, 2-[2-(2-thienyl)ethoxy]adenosine]			EC50 [1]: 3.7 nM
Nc1nc(OCCc2ccsc2)nc2c1ncn2[C@@H]1O[C@H](CO)[C@@H](O)[C@H]1O [Example 14, 2-[2-(3-thienyl)ethoxy]adenosine]		18.8 µM	
CC(COc1nc(N)c2ncn([C@@H]3O[C@H](CO)[C@@H](O)[C@H]3O)c2n1)c1ccccc1 (stereo partly drawn) [Example 17, 2-(2-phenyl-1-propoxy)adenosine]	9 nM	53.1 µM	
CC[C@@H](COc1nc(N)c2ncn([C@@H]3O[C@H](CO)[C@@H](O)[C@H]3O)c2n1)c1ccccc1 [Example 18]			Selectivity (A1/A2) [3]: 50
CC[C@H](COc1nc(N)c2ncn([C@@H]3O[C@H](CO)[C@@H](O)[C@H]3O)c2n1)c1ccccc1 [Example 19, 2-[(2S)-phenyl-1-butoxy]adenosine]	31.4 nM	27.4 µM	
Nc1nc(OCCCCc2ccccc2)nc2c1ncn2[C@@H]1O[C@H](CO)[C@@H](O)[C@H]1O [Example 20, 2-(4-phenyl-1-butoxy)adenosine]		7.36 µM	EC50 [1]: 9.9 nM
CCNC(=O)[C@H]1O[C@@H](n2cnc3c(N)nc(OCCc4ccccc4)nc32)[C@H](O)[C@@H]1O [Example 22, 2-(2-phenyl)ethoxy-5'-N-ethylcarboxamidoadenosine]	1.3 nM	15 µM	
Nc1nc(OCCCC2CCCCC2)nc2c1ncn2[C@@H]1O[C@H](CO)[C@@H](O)[C@H]1O [Example 23, 2-(3-cyclohexyl)propoxyadenosine]		3.76 µM	
